Experimental data from patent US6525021B1 (priority 1998, dated 2003).
Entries after “also recorded” stand apart in the source; their conditions may differ. Non-standard residues stand in square brackets, D forms with d. Residues, ends and D or L forms follow the SMILES beside them. *: point of attachment. X1 = CC(=O)N[C@@H]1[C@@H](O[C@@H]2O[C@H](CO)[C@H](O)[C@H](O)[C@H]2O)[C@@H](O)[C@@H](CO)O[C@@H]1*; pGlu = O=C1CC[C@@H](C(=O)O)N1

Key:
rNTR1 = rNTR1 (Rattus norvegicus, UniProt P20789); assay: cell-based; assay type: cell-based
[1] = biological target: human neurotensin type 1 receptor (hNTR1) (Homo sapiens, UniProt P30989); assay: biochemical; assay type: binding
[2] = biological target: rat neurotensin type 1 receptor (rNTR1) (Rattus norvegicus, UniProt P20789); assay: biochemical; assay type: binding
rNTR2 = rNTR2 (Rattus norvegicus, UniProt Q63384); assay type: cell-based
[3] = biological target: rat neurotensin type 2 receptor (rNTR2) (Rattus norvegicus, UniProt Q63384); assay: biochemical; assay type: binding
[4] = biological target: solubilized mouse neurotensin type 3 receptor (mNTR3) (Mus musculus, UniProt Q6PHU5); assay: biochemical; assay type: binding
[5] = parameters: species or system mice; conditions: mouse, in vivo

rNTR1, sequence (P20789 whole entry, looked up): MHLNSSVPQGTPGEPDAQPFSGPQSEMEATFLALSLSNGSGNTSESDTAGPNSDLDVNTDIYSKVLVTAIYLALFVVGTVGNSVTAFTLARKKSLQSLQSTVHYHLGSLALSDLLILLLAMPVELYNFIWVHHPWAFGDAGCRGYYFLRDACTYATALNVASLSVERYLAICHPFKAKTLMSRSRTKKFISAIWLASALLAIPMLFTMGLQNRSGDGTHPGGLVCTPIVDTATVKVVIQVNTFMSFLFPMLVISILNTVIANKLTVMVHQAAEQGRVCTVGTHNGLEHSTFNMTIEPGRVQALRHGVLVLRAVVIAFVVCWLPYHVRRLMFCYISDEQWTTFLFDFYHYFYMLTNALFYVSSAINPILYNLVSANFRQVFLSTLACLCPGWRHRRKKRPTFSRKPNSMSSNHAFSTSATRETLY
rNTR2, sequence (Q63384 whole entry, looked up): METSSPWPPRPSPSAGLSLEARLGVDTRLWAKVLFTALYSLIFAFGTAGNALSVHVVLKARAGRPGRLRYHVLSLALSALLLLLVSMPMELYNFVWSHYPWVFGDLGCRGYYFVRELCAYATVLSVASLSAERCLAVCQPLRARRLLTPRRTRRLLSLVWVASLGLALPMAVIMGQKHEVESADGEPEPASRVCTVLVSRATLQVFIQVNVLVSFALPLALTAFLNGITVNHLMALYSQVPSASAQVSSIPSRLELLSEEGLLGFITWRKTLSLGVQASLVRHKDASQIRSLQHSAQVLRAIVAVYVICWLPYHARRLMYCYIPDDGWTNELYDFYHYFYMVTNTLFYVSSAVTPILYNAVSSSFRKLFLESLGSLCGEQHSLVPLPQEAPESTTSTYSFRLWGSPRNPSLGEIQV
rat neurotensin type 1 receptor (rNTR1), sequence (P20789 whole entry, looked up): as the sequence (P20789 whole entry, looked up) above
solubilized mouse neurotensin type 3 receptor (mNTR3), sequence (Q6PHU5 74-825 limits assumed): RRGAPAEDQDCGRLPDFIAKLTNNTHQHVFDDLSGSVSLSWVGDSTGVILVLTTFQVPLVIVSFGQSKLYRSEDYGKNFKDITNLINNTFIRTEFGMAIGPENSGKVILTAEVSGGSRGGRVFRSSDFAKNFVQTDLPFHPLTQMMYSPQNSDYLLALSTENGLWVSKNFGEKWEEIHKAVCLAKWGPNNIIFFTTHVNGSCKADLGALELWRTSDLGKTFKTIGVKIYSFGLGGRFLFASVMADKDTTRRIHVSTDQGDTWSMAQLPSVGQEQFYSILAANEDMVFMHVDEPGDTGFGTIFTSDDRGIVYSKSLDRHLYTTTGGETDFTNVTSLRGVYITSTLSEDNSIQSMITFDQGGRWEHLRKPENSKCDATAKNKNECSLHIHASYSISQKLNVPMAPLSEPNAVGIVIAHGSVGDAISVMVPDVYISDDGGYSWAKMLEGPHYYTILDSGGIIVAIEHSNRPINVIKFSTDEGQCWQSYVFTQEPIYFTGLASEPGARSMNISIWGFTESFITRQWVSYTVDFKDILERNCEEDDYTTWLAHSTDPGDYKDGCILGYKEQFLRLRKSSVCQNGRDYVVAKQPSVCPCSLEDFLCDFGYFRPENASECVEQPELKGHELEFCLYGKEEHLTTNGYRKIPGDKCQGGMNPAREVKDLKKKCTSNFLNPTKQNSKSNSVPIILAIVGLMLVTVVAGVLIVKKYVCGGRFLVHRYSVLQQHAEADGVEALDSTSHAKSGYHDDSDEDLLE
human neurotensin type 1 receptor (hNTR1), sequence (P30989 whole entry, looked up): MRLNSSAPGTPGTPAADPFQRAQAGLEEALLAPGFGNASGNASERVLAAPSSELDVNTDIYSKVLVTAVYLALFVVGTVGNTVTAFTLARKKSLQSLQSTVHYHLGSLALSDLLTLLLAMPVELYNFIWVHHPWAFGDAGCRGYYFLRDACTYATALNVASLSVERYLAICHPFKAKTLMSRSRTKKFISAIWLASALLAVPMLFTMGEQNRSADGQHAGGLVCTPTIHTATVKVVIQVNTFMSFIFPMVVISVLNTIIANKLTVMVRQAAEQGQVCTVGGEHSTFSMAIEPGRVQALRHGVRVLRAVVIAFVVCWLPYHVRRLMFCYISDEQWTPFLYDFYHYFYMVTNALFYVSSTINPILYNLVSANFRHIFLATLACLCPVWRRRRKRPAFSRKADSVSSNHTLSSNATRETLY
rat neurotensin type 2 receptor (rNTR2), sequence (Q63384 whole entry, looked up): as the sequence (Q63384 whole entry, looked up) above

Row | Compound | EC50 (rNTR1) | agonistic efficacy compared with Neurotensin1-13 (rNTR1) | mode of action on CHO cells expressing the rNTR1 (rNTR1) | IC50 [1] | IC50 [2] | agonist response (rNTR2) | IC50 [3] | IC50 [4] | activity (onset and recovery time) compared with analog A [5] | time mice were drowsy [5]
1 | CC[C@H](C)[C@H](NC(=O)[C@H](Cc1ccc(O)cc1)NC(=O)[C@@H]1CCCN1C(=O)[C@H](CCCCN)NC(=O)[C@H](CCCCN)NC(=O)[C@@H](NC(=O)[C@H](C)NC(=O)[C@H](CC(N)=O)NC(=O)[C@H](CO)NC(=O)CNC(=O)CNC(=O)[C@H](CCC(=O)O)NC(=O)[C@H](CCC(=O)O)NC(=O)[C@H](CO)NC(=O)[C@@H]1CCC(=O)N1)[C@@H](C)O[C@H]1O[C@H](CO)[C@H](O)[C@H](O[C@@H]2O[C@H](CO)[C@H](O)[C@H](O)[C@H]2O)[C@H]1NC(C)=O)C(=O)N[C@@H](CC(C)C)C(=O)O [contulakin-G] ([pGlu]SEEGGSNAT(X1)KKPYIL-OH) | 0.02 to 0.03 µM | approximately half | acted as agonists | 0.96 µM | 0.524 µM | No response; also recorded: absence of any agonistic effect | 0.73 µM | 0.25 µM | – | –
2 | Δ1-9-Ser10-contulakin-G containing the native glycosylation on Ser10 [analog B] | – | – | – | – | – | – | – | – | same activity | 100 min
